Tests used:
[1] = Stability in aqueous solution by UV-Vis; type: physicochemical; conditions: hexafluorophosphate buffered DMSO:water 50:50, pH 7.4, after 6 hours
Procedure: S7.1 Stability in Aqueous Solution
Stability studies were performed for the perenosins in aqueous solution using UV-Vis spectroscopy to probe the lifetime of compounds 1d and 2-8 over the course of the transport experiments. The receptors (10 μL, 25 mM) were added to a hexafluorophosphate buffered (100 mM) DMSO:water 50:50 solution (4990 μL) and the pH was adjusted to either 7.2 or 4.6 using hexafluorophosphoric acid. Spectra were collected at 1 minute intervals over a period of 30 minutes.
Figure S50. Absorbance spectra taken over 30 minutes of 1d (25 mM) in a hexafluorophosphate buffered (100 mM) DMSO:water 50:50 mixture. a) pH 7.2 b) pH 4.6 […]
Figure S51. Absorbance spectra taken over 30 minutes of 2 (25 mM) in a hexafluorophosphate […]
The spectra obtained at pH 7.2 for compounds 1d and 2-8 show no notable change in the […]
conditions. However, the spectra obtained at pH 4.6 for compounds 1d and 2-4 show a decreasing peak at ~400 nm corresponding to the perenosins, and an increasing peak at ~300 nm corresponding to the breakdown product (both are marked with an arrow). The change in spectra […]
Spectra were collected periodically over 72 hours to monitor the change in the UV -vis absorbance.
Figure S58. Absorbance spectra taken periodically over 72 hours of 1d (25 mM) in a hexafluorophosphate buffered (100 mM) DMSO:water 50:50 mixture at pH 7.4 […]

[2] = Cationophore coupled KCl efflux ISE assay (valinomycin or monensin); type: biochemical; conditions: perenosins 0.1 mol%, prodigiosin 0.01 mol%, monensin 0.1 mol%, pH 7.2
Procedure: Herein, we employed two recently reported complementary cationophore coupled assays[19] to unambiguously confirm H^+/Cl^− symport facilitated by perenosins is a strictly inseparable process. Briefly, unilamellar vesicles were prepared with an internal solution of KCl (300 mM) and an external solution of K2SO4 (150 mM), buffered to pH 7.2 with potassium phosphate salts (5 mM). The naturally occurring cationophores valinomycin and monensin were either added alone, or in combination with a perenosin and the resulting chloride efflux, driven by a large chloride concentration gradient, was monitored using a chloride ISE. […] In contrast, monensin functions as an electroneutral transporter. […]
Figure S130. […] The final chloride efflux reading was taken a t 9 mins and was used as the 100% chloride efflux value. […]
The lipid stock solution was diluted with the external buffer solution to a standard volume (5 mL), to afford a solution with a lipid concentration of 1 mM. […] The compounds were added as a DMSO solution (0.1 mol% (with respect to lipid), 10 μL) to start the experiment and the resulting chloride efflux was monitored using a chloride selective electrode over 5 minutes. After this time, detergent (50 μL of Triron X-100 (11 w%) in H2O:DMSO (7:1 v/v)) was added to lyse the vesicles and after 7 minutes a final chloride efflux reading was taken. […]

[3] = Stability in vesicles by UV-Vis; type: physicochemical; conditions: POPC lipid solution, 2 hours
Procedure: The spectra obtained over the course of 72 hours for 1d, 2 and 4-8 show similar trends, 3 was not tested because it was unavailable. All spectra show a decrease in the peak at around 400 nm after 6 hours and an increase in the peak at around 300 nm after 72 hours. These changes in spectra […]
72 hours. The absorbance for 6 decreases dramatically for the readings after 6 hours because most […]
S7.2 Stability in Vesicles
Stability studies were performed for the perenosins in vesicles using UV-Vis spectroscopy to probe the lifetime of compounds 1d and 2-8 at pH 7.2 and pH 4.6. Unilamellar vesicles were prepared using previously reported literature procedures7-9. A lipid film of POPC (1-palmitoyl-2-oleoyl-sn-glycero-3-phosphocholine) was prepared from a chloroform solution under reduced pressure and then dried under vacuum for 4 or more hours. The lipid film was rehydrated by vortexing with a solution of phosphate buffered (5 mM) sodium chloride (500 mM). The lipid suspension was then subjected to 9 freeze-thaw cycles and left to rest at room temperature for 30 minutes. After this, the suspension was extruded 25 times through a 400 nm polycarbonate membrane resulting in unilamellar vesicles of a mean diameter of 400 nm. […]
Figure S65. Absorbance spectra taken over 2 hours of 1d (25 mM) in a sodium chloride (500 mM) phosphate buffered (5 mM) lipid solution. a) pH 7.2 b) pH 4.6 […]

CCCCCc1cc2cc(C)cc(/N=C/c3[nH]c(C)c(CCCCC)c3C)c2[nH]1 [Perenosin 6]
solubility during 72 h stability study [1]: poor solubility

CCCCCc1cc2cc(C)cc(/N=C/c3[nH]c4ccccc4c3C)c2[nH]1 [Perenosin 8]
chloride efflux coupled to monensin [2]: do not facilitate chloride transport

CCCCCc1cc(/N=C/c2[nH]c3ccccc3c2C)c2[nH]ccc2c1 [Perenosin 7]
chloride efflux coupled to monensin [2]: do not facilitate chloride transport

CCCCCc1cc(/N=C/c2[nH]c(C)cc2C)c2[nH]ccc2c1 [Perenosin 1d]
stability in vesicles at pH 7.2 [3]: stable
